According to US20220081481A1, “USE OF AGENTS CAPABLE OF INDUCING LC3-ASSOCIATED PHAGOCYTOSIS FOR TREATING SUSTAINED INFLAMMATION IN PATIENTS SUFFERING FROM CHRONIC LIVER DISEASE” (INSERM (INSTITUT NATIONAL DE LA SANTÉ ET DE LA RECHERCHE …, priority 2019, published 2022):
Ends that are not written are not given here.

What was measured:
[1] = system: blood monocytes from healthy donors and cirrhotic patients; assay: RT-PCR analysis of inflammatory gene expression in blood monocytes; assay type: cell-based, human; conditions: cirrhotic monocytes vs control-treated cells from healthy donors; 10 mM 3-MA, 10 μM DPI, 30 μM N8; FIG. 1C
Method: FIG. 1: Inhibition of LAP components enhances the inflammatory signature in blood monocytes from patients with cirrhosis. (A). Inverse correlation between circulating C-Reactive Protein (CRP) levels and the number of LC3+ pHrodo+ phagosomes containing E. Coli bioparticles in blood monocytes from patients with cirrhosis (n=14). *p=0.005, r=-0.7 for LC3+ pHrodo+ phagosomes number vs CRP. (B). PBMC were incubated for 4 hrs at 37° C. with either vehicle, 10 mM 3-MA, 10 μM DPI, 30 μM N8 or control mutant […] peptides Percentage of IL8+ production in CD14+ cells from patients (n=8) and healthy donors (n=6) PBMC. (C). RT-PCR analysis of inflammatory gene expression in blood monocytes from healthy donors (n=6-8) and cirrhotic patients (n=6-11). Results are expressed as fold over respective control. *p<0.05, **p<0.001 for healthy vs cirrhotic. Statistical analysis was performed using Spearman correlation test (A), Mann-Whitney (b, for comparison between healthy and cirrhosis) and Wilcoxon matched-pairs signed rank test (B, for treatment). Human blood monocytes. Human monocytes were isolated from freshly isolated PBMC, using EasySep human monocyte enrichment kit (STEMCELL Technologies, 19058), and CD14+CD16+ monocytes were isolated by immunomagnetic negative selection according to the manufacturer's instructions. Cell treatment. […]

[2] = system: CD14+ cells from patients and healthy donors PBMC; assay: Flow cytometry of IL8+ production in CD14+ cells of PBMC; assay type: cell-based, human; conditions: for number of CD14+IL8+ monocytes: cirrhotic monocytes vs control-treated cells from healthy donors, 10 mM 3-MA, 10 μM DPI, 30 μM N8, 4 hrs, FIG. 1B; for inflammatory signature in blood monocytes: healthy donors and patients, prominent increase in cells from patients, 4 hrs at 37° C., FIG. 1B and 1C
Method: FIG. 1: Inhibition of LAP components enhances the inflammatory signature in blood monocytes from patients with cirrhosis. (A). Inverse correlation between circulating C-Reactive Protein (CRP) levels and the number of LC3+ pHrodo+ phagosomes containing E. Coli bioparticles in blood monocytes from patients with cirrhosis (n=14). *p=0.005, r=-0.7 for LC3+ pHrodo+ phagosomes number vs CRP. (B). PBMC were incubated for 4 hrs at 37° C. with either vehicle, 10 mM 3-MA, 10 μM DPI, 30 μM N8 or control mutant […] peptides Percentage of IL8+ production in CD14+ cells from patients (n=8) and healthy donors (n=6) PBMC. (C). RT-PCR analysis of inflammatory gene expression in blood monocytes from healthy donors (n=6-8) and cirrhotic patients (n=6-11). Results are expressed as fold over respective control. *p<0.05, **p<0.001 for healthy vs cirrhotic. Statistical analysis was performed using Spearman correlation test (A), Mann-Whitney (b, for comparison between healthy and cirrhosis) and Wilcoxon matched-pairs signed rank test (B, for treatment). Peripheral blood mononuclear cells (PBMC) and monocyte isolation. PBMC were prepared from the blood of cirrhotic patients and healthy donors, using Ficoll density gradient centrifugation (Ficoll PaqueTM-plus, GE Healthcare, 17-1440-02), as previously described^43. Cell treatment. Human monocytes, THP1-XBlueTM-CD14 (Invivogen, Catalog #[…] THP1-FcγRIIA+-CD14+(kindly provided by Novimmune) monocytes were used. When indicated cells were exposed to either 30 μM chloroquine diphosphate (Sigma, C6628), 10 mM 3-Methyladenine (3-MA, Sigma, M9281-100 mg), 10 mM Diphenyleneiodonium chloride (DPI, Sigma, D2926-10 mg), or 10 mg/ml IVIg (Privigen, 100 mg/ml) for 4 hrs at 37° C., as indicated. […] In some experiments, cells were exposed to the preformed complex (10 μg/ml of mouse anti-hFcγRII mAb (clone AT-10, Santa Cruz, sc-13527) F(ab')2 fragments+20 μg/ml goat anti-mouse anti-kappa F(ab')2 fragments (Southern Biotech, 1052-01) or to 100 μg/ml of anti-hFcγRIIA mAb F(ab')2 fragments (clone IV.3), purified as we previously described^26. Flow cytometry. For surface and intracellular staining, PBMC (1×10^6) were centrifuged at 4° C. at 500 g for 5 min and stained in the dark for 30 min at 4° C. in flow cytometry staining buffer (5% FCS-PBS) containing fluorochrome-conjugated antibodies (APC-CD14, clone HCD14, Biolegend, 325608), CD11b-PE-vio 770 (clone REA592, Miltenyi Biotec, 130-109-287), CD16 Brilliant violet 605 (clone3G8, 302040, Biolegend) and FITC-FcγRIIA (clone […] Technologies, 60012FI). […] Data acquisition was performed using a BD Biosciences LSR Fortessa cytometer and data were analysed using FlowJo analysis software (Tree Star).

Compound | gene expression of cytokines and chemokines [1] | number of CD14+IL8+ monocytes [2] | inflammatory signature in blood monocytes [2]
Cn1cnc(N)c2ncnc1-2 [3-MA, 3-Methyladenine] | significantly higher | significantly higher | enhanced
N8 peptide: Tat-conjugated peptide of eight N-terminal amino acids (3-10) of p22phox that blocks the Rubicon-p22phox interaction (QIEWAMWA; also: Tat cell-penetrating peptide conjugate, attachment not given here; UniProt P13498 3-10, looked up, fragment) | significantly higher | significantly higher | enhanced
